Results reported in US20260285850A1, “SUBSTITUTED OXAZOLIDINONES AND IMIDAZOLINONES AS HERBICIDES” (FMC CORPORATION, priority 2023, published 2026).

Tests used:
Type in all cases: in vivo
[1] = test system: horseweed (Erigeron canadensis); assay: Test A postemergence application, visual injury rating 0-100
Method in brief: (§1)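 Compounds formulated in a non-phytotoxic solvent with surfactant are sprayed onto soil of freshly planted loam-sand pots ahead of emergence, or onto emerged plants 2-10 cm tall. After a 10-day greenhouse period, each species is scored visually for injury against untreated controls.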

[2] = test system: barnyardgrass (Echinochloa crus-galli); assay: as above
Method in brief: as §1

[3] = test system: palmer (palmer amaranth, palmer pigweed, Amaranthus palmeri); assay: as above
Method in brief: as §1

[4] = test system: galium (catchweed bedstraw, Galium aparine); assay: as above
Method in brief: as §1

[5] = test system: green foxtail (Setaria viridis); assay: as above
Method in brief: as §1

[6] = test system: oat, wild (wild oat, Avena fatua); assay: as above
Method in brief: as §1

soybean (Glycine max) [7] = assay: as above
Method in brief: as §1

[8] = test system: ryegrass, Italian (italian ryegrass, Lolium multiflorum); assay: as above
Method in brief: as §1

corn (Zea mays) [9] = assay: as above
Method in brief: as §1

kochia (Bassia scoparia) [10] = assay: as above
Method in brief: as §1

[11] = test system: ragweed (common ragweed, Ambrosia artemisiifolia); assay: as above
Method in brief: as §1

[12] = test system: blackgrass (Alopecurus myosuroides); assay: as above
Method in brief: as §1

[13] = test system: wheat (Triticum aestivum); assay: as above
Method in brief: as §1

[14] = test system: sedge, umbrella (small-flower umbrella sedge, Cyperus difformis); assay: Test B flooded paddy test, visual plant response rating 0-100; conditions: 250 g ai/ha, Flood, applied to paddy water, evaluated after 13 days
Method in brief: (§2)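 Plants were grown to the 2-leaf stage, then pots were flooded to 3 cm above the soil and test compounds were applied directly into the paddy water. Water depth was held there throughout; after 13 days in a greenhouse, injury was scored visually against untreated controls.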

[15] = test system: ducksalad (Heteranthera limosa); assay: as above; conditions: 250 g ai/ha, Flood, applied to paddy water, evaluated after 13 days
Method in brief: as §2

[16] = test system: barnyardgrass (Echinochloa crusgalli); assay: as above; conditions: 250 g ai/ha, Flood, applied to paddy water, evaluated after 13 days
Method in brief: as §2

rice (Oryza sativa) = assay: as above; conditions: 250 g ai/ha, Flood, applied to paddy water, evaluated after 13 days
Method in brief: as §2

[17] = test system: barnyardgrass (Echinochloa crus-galli); assay: Test A preemergence soil spray, visual injury rating 0-100; conditions: 10 days
Method in brief: as §1

[18] = test system: palmer (palmer amaranth, palmer pigweed, Amaranthus palmeri); assay: as above; conditions: 10 days
Method in brief: as §1

[19] = test system: green foxtail (Setaria viridis); assay: as above; conditions: 10 days
Method in brief: as §1

[20] = test system: oat, wild (wild oat, Avena fatua); assay: as above; conditions: 10 days
Method in brief: as §1

soybean (Glycine max) [21] = assay: as above; conditions: 10 days
Method in brief: as §1

[22] = test system: ryegrass, Italian (italian ryegrass, Lolium multiflorum); assay: as above; conditions: 10 days
Method in brief: as §1

corn (Zea mays) [23] = assay: as above; conditions: 10 days
Method in brief: as §1

kochia (Bassia scoparia) [24] = assay: as above; conditions: 10 days
Method in brief: as §1

[25] = test system: ragweed (common ragweed, Ambrosia artemisiifolia); assay: as above; conditions: 10 days
Method in brief: as §1

[26] = test system: blackgrass (Alopecurus myosuroides); assay: as above; conditions: 10 days
Method in brief: as §1

[27] = test system: wheat (Triticum aestivum); assay: as above; conditions: 10 days
Method in brief: as §1

[28] = 62 g ai/ha, postemergence, 10 days, 0 = no effect, 100 = complete control
[29] = Postemergence, 16 g ai/ha, greenhouse 10 days, 0 no effect, 100 complete control
[30] = 62 g ai/ha, 0 = no effect, 100 = complete control

CSCCOC(=O)C1CC(NC(=O)C2(C)CN(c3cc(F)cc(F)c3)C(=O)O2)C1 (racemic) [Compound 120]
40: Ragweed plant response rating (0-100) [11, 28] | Blackgrass plant response rating ([26]; 16 g ai/ha, 0 to 100 scale)
80: Oat, Wild plant response rating (0-100) [6, 28] | Soybean plant response rating (0-100) (soybean (Glycine max) [7]; [28]) | Kochia plant response rating (0-100) (kochia (Bassia scoparia) [10]; [28]) | Ryegrass, Italian plant response rating (0-100) [22, 30] | Corn plant response rating (0-100) (corn (Zea mays) [23]; [30]) | Blackgrass plant response rating (0-100) [26, 30]
20: Galium plant response rating (0 to 100 scale) [4, 29] | Ragweed plant response rating (0 to 100 scale) [11, 29] | Pigweed, Palmer plant response rating (0-100) [18, 30] | Foxtail, Green plant response rating ([19]; 16 g ai/ha, 0 to 100 scale) | Foxtail, Green plant response rating (0-100) [19, 30] | Wheat plant response rating ([27]; 16 g ai/ha, 0 to 100 scale)
10: Horseweed plant response rating (0-100) [1, 28] | Horseweed plant response rating (0 to 100 scale) [1, 29] | Pigweed, Palmer plant response rating (0 to 100 scale) [3, 29] | Ryegrass, Italian plant response rating (0 to 100 scale) [8, 29] | Ryegrass, Italian plant response rating ([22]; 16 g ai/ha, 0 to 100 scale) | Ragweed plant response rating ([25]; 16 g ai/ha, 0 to 100 scale)
90: Foxtail, Green plant response rating (0-100) [5, 28] | Corn plant response rating (0 to 100 scale) (corn (Zea mays) [9]; [29]) | Blackgrass plant response rating (0-100) [12, 28] | Wheat plant response rating (0-100) [13, 28] | Wheat plant response rating (0 to 100 scale) [13, 29] | Oat, Wild plant response rating ([20]; 16 g ai/ha, 0 to 100 scale) | Oat, Wild plant response rating (0-100) [20, 30]
30: Oat, Wild plant response rating (0 to 100 scale) [6, 29] | Kochia plant response rating (0-100) (kochia (Bassia scoparia) [24]; [30])
60: Foxtail, Green plant response rating (0 to 100 scale) [5, 29] | Barnyardgrass plant response rating (0-100) [17, 30]
70: Pigweed, Palmer plant response rating (0-100) [3, 28] | Galium plant response rating (0-100) [4, 28] | Ryegrass, Italian plant response rating (0-100) [8, 28] | Blackgrass plant response rating (0 to 100 scale) [12, 29] | Wheat plant response rating (0-100) [27, 30]
0: Kochia plant response rating (0 to 100 scale) (kochia (Bassia scoparia) [10]; [29]) | Plant response rating, Sedge, Umbrella (0 to 100 scale, 0 is no effect and 100 is complete control) [14] | Plant response rating, Ducksalad (0 to 100 scale, 0 is no effect and 100 is complete control) [15] | Plant response rating, Barnyardgrass (0 to 100 scale, 0 is no effect and 100 is complete control) [16] | Plant response rating, Rice (0 to 100 scale, 0 is no effect and 100 is complete control) (rice (Oryza sativa)) | Barnyardgrass plant response rating ([17]; 16 g ai/ha, 0 to 100 scale) | Pigweed, Palmer plant response rating ([18]; 16 g ai/ha, 0 to 100 scale) | Soybean plant response rating (soybean (Glycine max) [21]; 16 g ai/ha, 0 to 100 scale) | Soybean plant response rating (0-100) (soybean (Glycine max) [21]; [30]) | Corn plant response rating (corn (Zea mays) [23]; 16 g ai/ha, 0 to 100 scale) | Kochia plant response rating (kochia (Bassia scoparia) [24]; 16 g ai/ha, 0 to 100 scale) | Ragweed plant response rating (0-100) [25, 30]
100: Barnyardgrass plant response rating (0-100) [2, 28] | Corn plant response rating (0-100) (corn (Zea mays) [9]; [28])
50: Barnyardgrass plant response rating (0 to 100 scale) [2, 29] | Soybean plant response rating (0 to 100 scale) (soybean (Glycine max) [7]; [29])
